In patent US9340590B2 (priority 2011, dated 2016) one finds IC50 data, which are given here for six compounds.

Positions of bridges follow the written chain, without caps; N, C: chain ends. Non-standard residues stand in square brackets, D forms with d. Residues, ends and D or L forms follow the SMILES beside them. 1Nal = N[C@@H](Cc1cccc2ccccc12)C(=O)O

Experiment in all cases: cell-based
Experiment [1] addresses hNav1.5 (Homo sapiens, UniProt Q14524). Particulars: IonWorks Quattro, use-dependent block, hNav1.5; read-out: IWQ Use Nav1.5.
In experiment [2] the target is hNav1.7 (Homo sapiens, UniProt Q15858). The experiment is classed as cell-based. Conditions: IonWorks Quattro, use-dependent block, hNav1.7; read-out: IWQ Use Nav1.7. (In patch-clamp work, channel activity is measured electrically.)
The target in experiment [3] is hNav1.3 (Homo sapiens, UniProt Q9NY46). Conditions: IonWorks Quattro, use-dependent block, hNav1.3; read-out: IWQ Use Nav1.3.
hNav1.3, sequence (Q9NY46 whole entry, looked up): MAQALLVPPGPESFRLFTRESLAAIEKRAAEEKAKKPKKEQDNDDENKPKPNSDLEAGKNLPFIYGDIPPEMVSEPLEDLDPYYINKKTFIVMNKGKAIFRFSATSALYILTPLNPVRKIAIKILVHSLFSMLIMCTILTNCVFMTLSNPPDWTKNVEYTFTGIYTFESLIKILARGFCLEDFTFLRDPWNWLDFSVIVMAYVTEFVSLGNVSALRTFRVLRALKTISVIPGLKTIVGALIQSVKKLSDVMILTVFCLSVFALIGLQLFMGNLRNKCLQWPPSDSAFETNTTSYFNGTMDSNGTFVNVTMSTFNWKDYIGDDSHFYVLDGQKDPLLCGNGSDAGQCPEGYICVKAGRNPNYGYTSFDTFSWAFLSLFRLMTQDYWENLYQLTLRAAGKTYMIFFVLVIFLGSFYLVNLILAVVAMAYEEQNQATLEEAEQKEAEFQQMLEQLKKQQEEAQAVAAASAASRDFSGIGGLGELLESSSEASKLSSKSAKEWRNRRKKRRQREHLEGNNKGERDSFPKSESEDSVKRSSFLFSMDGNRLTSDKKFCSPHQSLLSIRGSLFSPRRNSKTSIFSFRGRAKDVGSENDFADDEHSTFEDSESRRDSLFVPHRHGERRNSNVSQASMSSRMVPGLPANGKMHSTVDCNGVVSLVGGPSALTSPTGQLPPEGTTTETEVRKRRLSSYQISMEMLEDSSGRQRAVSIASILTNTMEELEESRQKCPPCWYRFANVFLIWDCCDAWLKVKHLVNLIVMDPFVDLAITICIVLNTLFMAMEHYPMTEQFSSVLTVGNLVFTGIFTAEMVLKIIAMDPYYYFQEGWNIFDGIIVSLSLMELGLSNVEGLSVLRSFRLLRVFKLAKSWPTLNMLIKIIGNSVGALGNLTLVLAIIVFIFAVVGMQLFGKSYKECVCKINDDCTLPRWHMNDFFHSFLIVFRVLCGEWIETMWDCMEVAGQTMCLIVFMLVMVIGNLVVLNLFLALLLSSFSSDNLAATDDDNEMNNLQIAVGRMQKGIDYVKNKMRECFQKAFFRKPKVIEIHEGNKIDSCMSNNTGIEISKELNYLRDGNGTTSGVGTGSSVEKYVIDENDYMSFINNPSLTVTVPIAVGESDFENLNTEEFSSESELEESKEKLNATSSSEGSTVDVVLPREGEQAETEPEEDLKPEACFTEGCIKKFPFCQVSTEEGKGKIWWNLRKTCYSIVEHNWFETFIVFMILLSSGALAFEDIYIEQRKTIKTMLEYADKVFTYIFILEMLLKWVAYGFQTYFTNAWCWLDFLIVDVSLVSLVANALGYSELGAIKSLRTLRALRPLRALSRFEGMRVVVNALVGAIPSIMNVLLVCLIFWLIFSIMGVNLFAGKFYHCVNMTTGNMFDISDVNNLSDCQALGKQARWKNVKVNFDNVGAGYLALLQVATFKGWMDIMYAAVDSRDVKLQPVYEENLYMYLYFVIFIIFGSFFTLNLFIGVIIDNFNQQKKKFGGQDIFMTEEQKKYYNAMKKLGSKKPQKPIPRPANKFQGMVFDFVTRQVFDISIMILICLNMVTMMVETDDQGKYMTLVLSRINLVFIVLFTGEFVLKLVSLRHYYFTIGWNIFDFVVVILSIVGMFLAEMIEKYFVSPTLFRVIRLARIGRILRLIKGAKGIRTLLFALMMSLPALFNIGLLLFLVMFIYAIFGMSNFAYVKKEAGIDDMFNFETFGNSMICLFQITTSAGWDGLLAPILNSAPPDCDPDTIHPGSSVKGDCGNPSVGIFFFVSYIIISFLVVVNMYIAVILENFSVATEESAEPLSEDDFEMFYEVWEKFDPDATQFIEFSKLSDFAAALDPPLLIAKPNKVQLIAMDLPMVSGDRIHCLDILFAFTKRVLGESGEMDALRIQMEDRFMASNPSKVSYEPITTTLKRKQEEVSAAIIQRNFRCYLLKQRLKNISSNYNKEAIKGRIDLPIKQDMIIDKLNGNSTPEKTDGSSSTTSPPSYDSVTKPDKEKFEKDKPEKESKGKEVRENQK

hNav1.5, sequence (Q14524 whole entry, looked up): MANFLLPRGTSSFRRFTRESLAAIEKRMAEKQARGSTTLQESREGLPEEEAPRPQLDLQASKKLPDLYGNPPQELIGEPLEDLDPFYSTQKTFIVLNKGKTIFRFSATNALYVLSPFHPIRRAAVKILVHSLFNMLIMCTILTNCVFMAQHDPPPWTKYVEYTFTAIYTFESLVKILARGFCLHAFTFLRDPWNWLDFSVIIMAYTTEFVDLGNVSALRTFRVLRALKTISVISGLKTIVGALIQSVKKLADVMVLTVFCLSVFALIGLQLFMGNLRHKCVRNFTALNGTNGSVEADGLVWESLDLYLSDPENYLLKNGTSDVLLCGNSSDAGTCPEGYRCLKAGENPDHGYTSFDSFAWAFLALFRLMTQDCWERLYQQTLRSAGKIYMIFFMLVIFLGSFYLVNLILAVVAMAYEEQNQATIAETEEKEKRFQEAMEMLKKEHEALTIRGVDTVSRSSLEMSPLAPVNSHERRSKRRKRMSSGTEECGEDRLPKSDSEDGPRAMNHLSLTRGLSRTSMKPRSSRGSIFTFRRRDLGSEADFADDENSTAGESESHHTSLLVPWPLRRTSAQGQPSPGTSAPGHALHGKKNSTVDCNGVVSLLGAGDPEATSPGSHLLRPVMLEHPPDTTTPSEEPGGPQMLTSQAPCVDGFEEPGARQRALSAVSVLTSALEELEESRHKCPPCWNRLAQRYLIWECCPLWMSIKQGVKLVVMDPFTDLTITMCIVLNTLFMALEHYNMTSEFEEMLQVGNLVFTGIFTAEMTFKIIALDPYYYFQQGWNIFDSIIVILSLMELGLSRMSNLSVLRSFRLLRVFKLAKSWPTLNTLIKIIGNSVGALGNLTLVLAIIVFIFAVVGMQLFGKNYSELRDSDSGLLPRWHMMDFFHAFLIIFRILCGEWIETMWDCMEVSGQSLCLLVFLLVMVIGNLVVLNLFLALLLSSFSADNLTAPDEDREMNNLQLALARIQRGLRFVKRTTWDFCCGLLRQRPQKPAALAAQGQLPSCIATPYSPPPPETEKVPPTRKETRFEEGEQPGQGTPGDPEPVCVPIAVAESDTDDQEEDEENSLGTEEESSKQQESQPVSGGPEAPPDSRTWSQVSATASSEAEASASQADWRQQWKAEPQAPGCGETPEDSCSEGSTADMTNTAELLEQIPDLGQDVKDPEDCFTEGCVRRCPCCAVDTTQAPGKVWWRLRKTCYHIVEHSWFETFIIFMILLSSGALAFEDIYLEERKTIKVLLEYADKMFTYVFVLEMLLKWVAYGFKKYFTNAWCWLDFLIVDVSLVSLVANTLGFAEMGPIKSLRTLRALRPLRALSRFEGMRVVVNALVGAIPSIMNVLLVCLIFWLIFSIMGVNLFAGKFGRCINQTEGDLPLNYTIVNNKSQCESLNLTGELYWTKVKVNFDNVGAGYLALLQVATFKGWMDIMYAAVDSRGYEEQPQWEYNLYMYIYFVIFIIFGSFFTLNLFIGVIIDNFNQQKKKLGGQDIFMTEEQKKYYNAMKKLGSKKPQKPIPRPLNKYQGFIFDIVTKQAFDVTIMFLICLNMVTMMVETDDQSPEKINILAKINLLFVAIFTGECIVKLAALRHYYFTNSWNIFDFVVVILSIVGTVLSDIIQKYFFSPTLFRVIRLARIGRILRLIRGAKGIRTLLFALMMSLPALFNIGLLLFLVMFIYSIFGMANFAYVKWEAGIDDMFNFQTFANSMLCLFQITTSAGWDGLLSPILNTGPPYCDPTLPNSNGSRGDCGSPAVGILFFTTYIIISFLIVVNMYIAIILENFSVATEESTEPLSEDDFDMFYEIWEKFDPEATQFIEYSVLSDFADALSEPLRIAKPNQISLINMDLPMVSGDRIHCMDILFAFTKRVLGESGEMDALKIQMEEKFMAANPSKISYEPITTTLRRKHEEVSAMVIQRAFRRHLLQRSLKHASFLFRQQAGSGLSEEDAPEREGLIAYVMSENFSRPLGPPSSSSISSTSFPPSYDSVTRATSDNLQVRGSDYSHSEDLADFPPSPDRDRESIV

With `CC[C@H](C)[C@@H]1NC(=O)[C@@H]2CSSC[C@@H]3NC(=O)[C@H](C(C)C)NC(=O)[C@H](CC(C)C)NC(=O)[C@H](CC(N)=O)NC(=O)[C@@H]4CCCN4C(=O)[C@H](CCCNC(=N)N)NC(=O)[C@H](CSSC[C@H](NC(=O)[C@@H](N)CC(=O)O)C(=O)N[C@@H](CC(C)C)C(=O)NCC(=O)N[C@@H](C)C(=O)N[C@@H](CCSC)C(=O)N[C@@H](CCCNC(=N)N)C(=O)N[C@@H](CCCCN)C(=O)N2)NC(=O)[C@H](CSSC[C@@H](C(=O)N[C@@H](CCCCN)C(=O)N[C@@H](Cc2ccc(O)cc2)C(=O)N[C@@H](C)C(=O)N[C@@H](Cc2ccccc2)C(N)=O)NC(=O)[C@H](Cc2c[nH]c4ccccc24)NC(=O)[C@H](CCCCN)NC(=O)[C@H](Cc2c[nH]cn2)NC(=O)[C@H]([C@@H](C)O)NC(=O)[C@H](CCCNC(=N)N)NC(=O)[C@H](CO)NC3=O)NC(=O)[C@H](CCCCN)NC(=O)[C@H](CC(=O)O)NC(=O)[C@H](CC(N)=O)NC(=O)[C@H](CC(=O)O)NC(=O)[C@@H]2CCCN2C1=O` [compound 426] (H-DCLGAMRKCIPDNDKCCRPNLVCSRTHKWCKYAF-NH2; disulfide 2-17, 9-23, 16-30), the IC50 is more than 5 µM in experiment [1], 0.58 µM in experiment [2] and 1.58 µM in experiment [3].

For the compound `CC[C@H](C)[C@@H]1NC(=O)[C@@H]2CSSC[C@@H]3NC(=O)[C@H](C(C)C)NC(=O)[C@H](CC(C)C)NC(=O)[C@H](CC(N)=O)NC(=O)[C@@H]4CCCN4C(=O)[C@H](CCCNC(=N)N)NC(=O)[C@H](CSSC[C@H](NC(=O)[C@@H](N)CC(=O)O)C(=O)N[C@@H](CC(C)C)C(=O)NCC(=O)N[C@@H](C)C(=O)N[C@@H](CCSC)C(=O)N[C@@H](CCCNC(=N)N)C(=O)N[C@@H](CCCCN)C(=O)N2)NC(=O)[C@H](CSSC[C@@H](C(=O)N[C@@H](CCCCN)C(=O)N[C@@H](Cc2ccc(O)cc2)C(=O)N[C@H](C(=O)N[C@@H](Cc2ccccc2)C(N)=O)C(C)C)NC(=O)[C@H](Cc2c[nH]c4ccccc24)NC(=O)[C@H](CCCCN)NC(=O)[C@H](Cc2c[nH]cn2)NC(=O)[C@H]([C@@H](C)O)NC(=O)[C@H](CCCNC(=N)N)NC(=O)[C@H](CO)NC3=O)NC(=O)[C@H](CCCCN)NC(=O)[C@H](CC(=O)O)NC(=O)[C@H](Cc2cccc3ccccc23)NC(=O)[C@H](CC(=O)O)NC(=O)[C@@H]2CCCN2C1=O` [compound 427] (H-DCLGAMRKCIPD[1Nal]DKCCRPNLVCSRTHKWCKYVF-NH2; disulfide 2-17, 9-23, 16-30), the IC50 in experiment [1] was more than 5 µM; in experiment [2], 0.65 µM; in experiment [3], 1.18 µM.

Turning to `CC[C@H](C)[C@@H]1NC(=O)[C@@H]2CSSC[C@@H]3NC(=O)[C@H](C(C)C)NC(=O)[C@H](CC(C)C)NC(=O)[C@H](CC(N)=O)NC(=O)[C@@H]4CCCN4C(=O)[C@H](CCCNC(=N)N)NC(=O)[C@H](CSSC[C@H](NC(=O)[C@@H](N)CC(=O)O)C(=O)N[C@@H](CC(C)C)C(=O)NCC(=O)N[C@@H](C)C(=O)N[C@@H](CCSC)C(=O)N[C@@H](CCCNC(=N)N)C(=O)N[C@@H](CCCCN)C(=O)N2)NC(=O)[C@H](CSSC[C@@H](C(=O)N[C@@H](CCCCN)C(=O)N[C@@H](Cc2ccc(O)cc2)C(=O)N[C@H](C(=O)N[C@@H](Cc2ccccc2)C(N)=O)C(C)C)NC(=O)[C@H](Cc2c[nH]c4ccccc24)NC(=O)[C@H](CCCCN)NC(=O)[C@H](Cc2c[nH]cn2)NC(=O)[C@H]([C@@H](C)O)NC(=O)[C@H](CCCNC(=N)N)NC(=O)[C@H](CO)NC3=O)NC(=O)[C@H](CCCCN)NC(=O)[C@H](CC(=O)O)NC(=O)[C@H](Cc2c[nH]c3ccccc23)NC(=O)[C@H](CC(=O)O)NC(=O)[C@@H]2CCCN2C1=O` [compound 428] (H-DCLGAMRKCIPDWDKCCRPNLVCSRTHKWCKYVF-NH2; disulfide 2-17, 9-23, 16-30), the figures for the IC50 in experiment [1], in experiment [2] and in experiment [3] were more than 5 µM, 0.67 µM and 1.1 µM, respectively.

For the compound `CC[C@H](C)[C@@H]1NC(=O)[C@@H]2CSSC[C@@H]3NC(=O)[C@H](C(C)C)NC(=O)[C@H](CC(C)C)NC(=O)[C@H](CC(N)=O)NC(=O)[C@@H]4CCCN4C(=O)[C@H](CCCNC(=N)N)NC(=O)[C@H](CSSC[C@H](NC(=O)[C@@H](N)CC(=O)O)C(=O)N[C@@H](CC(C)C)C(=O)N[C@@H](CCC(=O)O)C(=O)N[C@@H](C)C(=O)N[C@@H](CCSC)C(=O)N[C@@H](CCCNC(=N)N)C(=O)N[C@@H](CCCCN)C(=O)N2)NC(=O)[C@H](CSSC[C@@H](C(=O)N[C@@H](CCCCN)C(=O)N[C@@H](Cc2ccc(O)cc2)C(=O)N[C@H](C(=O)N[C@@H](Cc2ccccc2)C(N)=O)C(C)C)NC(=O)[C@H](Cc2c[nH]c4ccccc24)NC(=O)[C@H](CCCCN)NC(=O)[C@H](Cc2c[nH]cn2)NC(=O)[C@H]([C@@H](C)O)NC(=O)[C@H](CCCNC(=N)N)NC(=O)[C@H](CO)NC3=O)NC(=O)[C@H](CCCCN)NC(=O)[C@H](CC(=O)O)NC(=O)[C@H](CC(N)=O)NC(=O)[C@H](CC(=O)O)NC(=O)[C@@H]2CCCN2C1=O` [compound 429] (H-DCLEAMRKCIPDNDKCCRPNLVCSRTHKWCKYVF-NH2; disulfide 2-17, 9-23, 16-30), the IC50 was more than 5 µM in experiment [1], 4.64 µM in experiment [2] and 3.99 µM in experiment [3].

For the compound `CC[C@H](C)[C@@H]1NC(=O)[C@@H]2CSSC[C@@H]3NC(=O)[C@H](C(C)C)NC(=O)[C@H](CC(C)C)NC(=O)[C@H](CC(N)=O)NC(=O)[C@@H]4CCCN4C(=O)[C@H](CCCNC(=N)N)NC(=O)[C@H](CSSC[C@H](NC(=O)[C@@H](N)CC(=O)O)C(=O)N[C@@H](CC(C)C)C(=O)NCC(=O)N[C@@H](C)C(=O)N[C@@H](CCSC)C(=O)N[C@@H](CCCNC(=N)N)C(=O)N[C@@H](CCCCN)C(=O)N2)NC(=O)[C@H](CSSC[C@@H](C(=O)N[C@@H](CCCCN)C(=O)N[C@@H](Cc2ccc(O)cc2)C(=O)N[C@H](C(=O)N[C@@H](CCC(=O)O)C(N)=O)C(C)C)NC(=O)[C@H](Cc2c[nH]c4ccccc24)NC(=O)[C@H](CCCCN)NC(=O)[C@H](Cc2c[nH]cn2)NC(=O)[C@H]([C@@H](C)O)NC(=O)[C@H](CCCNC(=N)N)NC(=O)[C@H](CO)NC3=O)NC(=O)[C@H](CCCCN)NC(=O)[C@H](CC(=O)O)NC(=O)[C@H](CC(N)=O)NC(=O)[C@H](CC(=O)O)NC(=O)[C@@H]2CCCN2C1=O` [compound 430] (H-DCLGAMRKCIPDNDKCCRPNLVCSRTHKWCKYVE-NH2; disulfide 2-17, 9-23, 16-30), the IC50 in experiment [1], in experiment [2] and in experiment [3] was more than 5 µM each time.

For the compound `CC[C@H](C)[C@@H]1NC(=O)[C@@H]2CSSC[C@@H]3NC(=O)[C@H](C(C)C)NC(=O)[C@H](CC(C)C)NC(=O)[C@H](CC(N)=O)NC(=O)[C@@H]4CCCN4C(=O)[C@H](CCCNC(=N)N)NC(=O)[C@H](CSSC[C@H](NC(=O)[C@@H](N)CC(=O)O)C(=O)N[C@@H](CC(C)C)C(=O)NCC(=O)N[C@@H](C)C(=O)N[C@@H](CCSC)C(=O)N[C@@H](CCCNC(=N)N)C(=O)N[C@@H](CCCCN)C(=O)N2)NC(=O)[C@H](CSSC[C@@H](C(=O)N[C@@H](CCCCN)C(=O)N[C@@H](Cc2ccc(O)cc2)C(=O)N[C@H](C(=O)N[C@@H](C)C(N)=O)C(C)C)NC(=O)[C@H](Cc2c[nH]c4ccccc24)NC(=O)[C@H](CCCCN)NC(=O)[C@H](Cc2c[nH]cn2)NC(=O)[C@H]([C@@H](C)O)NC(=O)[C@H](CCCNC(=N)N)NC(=O)[C@H](CO)NC3=O)NC(=O)[C@H](CCCCN)NC(=O)[C@H](CC(=O)O)NC(=O)[C@H](CC(N)=O)NC(=O)[C@H](CC(=O)O)NC(=O)[C@@H]2CCCN2C1=O` [compound 431] (H-DCLGAMRKCIPDNDKCCRPNLVCSRTHKWCKYVA-NH2; disulfide 2-17, 9-23, 16-30), the IC50 in experiment [1], in experiment [2] and in experiment [3] was more than 5 µM in each case.
